Data published in patent publication US7204974B2, “Stabilization of oxidation-sensitive or UV-sensitive active ingredients” (Beiersdorf AG, priority 2001, dated 2007).

Assay: Polarity of lipids
Type: physicochemical
[1] = lipids with a polarity of at most 30 mN/m
[2] = further lipids, polarity of ≧30 mN/m

## CC(C)CCCCCCCOC(=O)CC(C)CC(C)(C)C (stereo not drawn) [Dermol 109, Isodecyl 3,5,5-Trimethyl Hexanoate]
[1]
  Polarity mN/m: 29.1 mN/m

## CCCCCCCCCC(=O)OCCCC(C)C [Dermol IHD, Isohexyl Decanoate]
[1]
  Polarity mN/m: 29.7 mN/m

## CC(C)CCCCCCCOC(=O)C(C)(C)C [DUB VCI 10, Isodecyl Neopentanoate]
[1]
  Polarity mN/m: 29.9 mN/m

## Cyclopolydimethylsiloxane [Dow Corning Fluid 244]
[1]
  Polarity mN/m: 28.5 mN/m

## Phenyl Trimethicone [Silicone oil VP 1120]
[1]
  Polarity mN/m: 22.7 mN/m

## CCCCCCOCCCCCC [Dihexyl ether, Dihexyl Ether]
[1]
  Polarity mN/m: 29.2 mN/m

## CCCCCCCC/C=C\CCCCCCCC(=O)OCCOCCOCC [Ethoxydiglycol Oleate]
[2]
  Polarity mN/m: 40.5 mN/m

## Cetearyl Isononanoate [Cetiol SN]
[1]
  Polarity mN/m: 28.6 mN/m

## CCCCCCC(CO)CCCC (stereo not drawn) [Isofol 12, Butyl Octanol]
[1]
  Polarity mN/m: 17.4 mN/m

## CCCCCCC(CCCC)C(=O)O (stereo not drawn) [Isocarb 12, Butyl Octanoic Acid]
[1]
  Polarity mN/m: 22.1 mN/m

## Cyclomethicone [DC Fluid 345]
[1]
  Polarity mN/m: 28.5 mN/m

## Dioctylcyclohexane
[2]
  Polarity mN/m: 39.0 mN/m

## Isotridecyl 3,5,5-trimethylhexanonanoate [Dermol 139]
[1]
  Polarity mN/m: 24.5 mN/m

## CC(CCOC(=O)CC(C)CC(C)(C)C)CC(C)(C)C (stereo not drawn) [Trimethylhexyl Isononanoate]
[2]
  Polarity mN/m: 31.1 mN/m

## CCCCCCCCCCCCCCCCCCOC(=O)CCCCCC [Tegosoft SH, Stearyl Heptanoate]
[1]
  Polarity mN/m: 17.8 mN/m

## CCCCC(CC)C(=O)OCCC(C)CC(C)(C)C (stereo not drawn) [Dermol 98, 2-Ethylhexanoic acid 3,5,5-trimethyl ester]
[1]
  Polarity mN/m: 26.2 mN/m

## CCCCCCCCCCCCCC(C)C [Isohexadecane]
[2]
  Polarity mN/m: 43.8 mN/m

## CCCCC(CC)COC(=O)CCCCCC(C)C (stereo not drawn) [2-Ethylhexyl Isononanoate]
[2]
  Polarity mN/m: 31.0 mN/m

## CCCCCCCCOC(=O)CCCCCCCCCCCCCCC(C)C [Octyl Isostearate]
[2]
  Polarity mN/m: 31.6 mN/m

## CCCCCCCCC(CO)CCCCCC (stereo not drawn) [Isofol 16, Hexyl Decanol]
[1]
  Polarity mN/m: 24.3 mN/m

## PEG 2 Diethylene Hexanoate [Dermol 488]
[1]
  Polarity mN/m: 10.1 mN/m

## CCCCOC(=O)CCCCC(=O)OCCCC [Cetiol B, Dibutyl Adipate]
[1]
  Polarity mN/m: 14.3 mN/m

## CCCCCCCCCCCCCCCCCC(=O)OC(C)C [Isopropyl stearate, Isopropyl Stearate]
[1]
  Polarity mN/m: 21.9 mN/m

## CCCCCCCCCCC(CO)CCCCCCCC (stereo not drawn) [Eutanol G, Octyldodecanol]
[1]
  Polarity mN/m: 24.8 mN/m

## CCCCCCCCCCCCCCCCCC(C)C [Isoeicosane]
[2]
  Polarity mN/m: 41.9 mN/m

## CCCCCCCC(=O)OCCCCCCCC(C)C [Dermol 108, Isodecyl Octanoate]
[1]
  Polarity mN/m: 29.6 mN/m

## CCCCCCCCCCCCCC(=O)OCC(CCCCCCCC)CCCCCCCCCC (stereo not drawn) [M.O.D., Octyldodecyl Myristate]
[1]
  Polarity mN/m: 22.1 mN/m

## Isocetyl Palmitate
[2]
  Polarity mN/m: 36.2 mN/m

## Triisostearin [Prisorine 2041 GTIS]
[1]
  Polarity mN/m: 2.4 mN/m

## CCCCCCCC(=O)OCC(COC(=O)CCCCCCC)OC(=O)CCCCCCC [Trivent OCG, Tricaprylin]
[1]
  Polarity mN/m: 20.2 mN/m
